In US11613538B2, “Method of inhibiting or reducing a viral infection” (PTC Therapeutics, Inc., priority 2009, dated 2023):

Tested on: hypoxia-induced VEGF production in HeLa cells
Assay: cells
Format: cell-based, human
Settings: Homo sapiens, HeLa

SMILES	EC50 [nM]
CN1CCC(COc2ccc(C3c4[nH]c5ccc(Cl)cc5c4CCN3C(=O)Oc3ccc(Cl)cc3)cc2)CC1 (stereo not drawn) [Compound 1099]	8 to 40
COC(=O)N1CCc2c([nH]c3ccc(Cl)cc23)C1c1ccc(OCCCN2CCOCC2)cc1 (stereo not drawn) [Compound 1100]	8 to 40
COC(=O)N1CCc2c([nH]c3ccc(Cl)cc23)C1c1ccc(OCCCN2CCN(C)CC2)cc1 (stereo not drawn) [Compound 1101]	40 to 200
CC(C)OC(=O)N1CCc2c([nH]c3ccc(Cl)cc23)C1c1ccc(OCCCN2CCOCC2)cc1 (stereo not drawn) [Compound 1102]	< 8
CC(C)OC(=O)N1CCc2c([nH]c3ccc(Cl)cc23)C1c1ccc(OCCCN2CCN(C)CC2)cc1 (stereo not drawn) [Compound 1103]	8 to 40
CC(C)COC(=O)N1CCc2c([nH]c3ccc(Cl)cc23)C1c1ccc(OCCCN2CCN(C)CC2)cc1 (stereo not drawn) [Compound 1104]	8 to 40
CCCOC(=O)N1CCc2c([nH]c3ccc(Cl)cc23)C1c1ccc(OCCCN2CCOCC2)cc1 (stereo not drawn) [Compound 1105]	< 8
O=C(OCc1ccccc1)N1CCc2c([nH]c3ccc(Cl)cc23)C1c1ccc(OCCCN2CCOCC2)cc1 (stereo not drawn) [Compound 1106]	< 8
O=C(OCc1ccccc1)N1CCc2c([nH]c3ccc(Cl)cc23)C1c1ccc(OCCCn2ccnn2)cc1 (stereo not drawn) [Compound 1107]	< 8
COc1ccc(OC(=O)N2CCc3c([nH]c4ccc(Cl)cc34)C2c2ccc(OCCCN3CCN(C)CC3)cc2)cc1 (stereo not drawn) [Compound 1108]	8 to 40
COCCOC(=O)N1CCc2c([nH]c3ccc(Cl)cc23)C1c1ccc(OCCCO)cc1 (stereo not drawn) [Compound 1109]	< 8
O=C(Oc1ccc(Cl)cc1)N1CCc2c([nH]c3ccc(Cl)cc23)C1c1ccc(OCCCO)cc1 (stereo not drawn) [Compound 1111]	< 8
CCOC(=O)N1CCc2c([nH]c3ccc(Cl)cc23)C1c1cccc(OCCCN2CCN(C)CC2)c1 (stereo not drawn) [Compound 1112]	> 1000
CN1CCN(CCCOc2cccc(C3c4[nH]c5ccc(Cl)cc5c4CCN3C(=O)Oc3ccc(F)cc3)c2)CC1 (stereo not drawn) [Compound 1113]	200 to 1000
CCOC(=O)N1CCc2c([nH]c3ccc(Cl)cc23)C1c1cccc(OCCCN2CCOCC2)c1 (stereo not drawn) [Compound 1114]	8 to 40
O=C(Oc1ccc(F)cc1)N1CCc2c([nH]c3ccc(Cl)cc23)C1c1cccc(OCCCN2CCOCC2)c1 (stereo not drawn) [Compound 1115]	8 to 40
CCOC(=O)N1CCc2c([nH]c3ccc(Cl)cc23)C1c1cccc(OCCCN2CCSCC2)c1 (stereo not drawn) [Compound 1116]	8 to 40
O=C(Oc1ccc(F)cc1)N1CCc2c([nH]c3ccc(Cl)cc23)C1c1cccc(OCCCN2CCSCC2)c1 (stereo not drawn) [Compound 1117]	8 to 40
CCOC(=O)N1CCc2c([nH]c3ccc(Cl)cc23)C1c1cccc(OCCCN(CCOC)CCOC)c1 (stereo not drawn) [Compound 1118]	200 to 1000
COCCN(CCCOc1cccc(C2c3[nH]c4ccc(Cl)cc4c3CCN2C(=O)Oc2ccc(F)cc2)c1)CCOC (stereo not drawn) [Compound 1119]	40 to 200
CCOC(=O)N1CCc2c([nH]c3ccc(Cl)cc23)C1c1cccc(OCCCN(C)CCOC)c1 (stereo not drawn) [Compound 1120]	200 to 1000
COCCN(C)CCCOc1cccc(C2c3[nH]c4ccc(Cl)cc4c3CCN2C(=O)Oc2ccc(F)cc2)c1 (stereo not drawn) [Compound 1121]	> 1000
CCOC(=O)N1CCc2c([nH]c3ccc(Cl)cc23)C1c1cccc(OCCCn2ccnc2)c1 (stereo not drawn) [Compound 1122]	> 1000
CCOC(=O)N1CCc2c([nH]c3ccc(Cl)cc23)C1c1cccc(OCCCn2ccnn2)c1 (stereo not drawn) [Compound 1124]	200 to 1000
COc1cc(C2c3[nH]c4ccc(Cl)cc4c3CCN2C(=O)Oc2ccccc2)ccc1OCCCN1CCOCC1 (stereo not drawn) [Compound 1130]	8 to 40
COc1ccc(OC(=O)N2CCc3c([nH]c4ccc(Cl)cc34)C2c2ccc(OCCCN3CCOCC3)c(OC)c2)cc1 (stereo not drawn) [Compound 1131]	8 to 40

SMILES	EC50 [nM]
COc1cc(C2c3[nH]c4ccc(Cl)cc4c3CCN2C(=O)Oc2ccc(C)cc2)ccc1OCCCN1CCOCC1 (stereo not drawn) [Compound 1132]	8 to 40
COc1cc(C2c3[nH]c4ccc(Cl)cc4c3CCN2C(=O)Oc2ccc(F)cc2)ccc1OCCCN1CCOCC1 (stereo not drawn) [Compound 1133]	< 8
Cc1ccc(C(=O)N2CCc3c([nH]c4ccc(Cl)cc34)C2c2ccc(OCCCn3cncn3)cc2)cc1 (stereo not drawn) [Compound 1135]	8 to 40
O=C(c1ccc(Cl)cc1)N1CCc2c([nH]c3ccc(Cl)cc23)C1c1ccc(OCCCN2CCOCC2)cc1 (stereo not drawn) [Compound 1136]	40 to 200
O=C(c1ccc(F)cc1)N1CCc2c([nH]c3ccc(Cl)cc23)C1c1ccc(OCCCn2cncn2)cc1 (stereo not drawn) [Compound 1138]	8 to 40
O=C(c1ccccc1)N1CCc2c([nH]c3ccc(Cl)cc23)C1c1ccc(OCCCn2cncn2)cc1 (stereo not drawn) [Compound 1139]	8 to 40
O=C(c1ccccc1)N1CCc2c([nH]c3ccc(Cl)cc23)C1c1ccc(OCCCN2CCOCC2)cc1 (stereo not drawn) [Compound 1140]	40 to 200
O=C(C1CC1)N1CCc2c([nH]c3ccc(Cl)cc23)C1c1ccc(OCCCN2CCOCC2)cc1 (stereo not drawn) [Compound 1141]	40 to 200
O=C(C1CC1)N1CCc2c([nH]c3ccc(Cl)cc23)C1c1ccc(OCCCn2cncn2)cc1 (stereo not drawn) [Compound 1142]	8 to 40
COc1ccc(OC(=O)N2CCc3c([nH]c4ccc(Cl)cc34)C2c2ccc(OCCCn3nccn3)c(OC)c2)cc1 (stereo not drawn) [Compound 1146]	8 to 40
COc1cc(C2c3[nH]c4ccc(Cl)cc4c3CCN2C(=O)Oc2ccc(F)cc2)ccc1OCCCn1ccnn1 (stereo not drawn) [Compound 1147]	8 to 40
COc1cc(C2c3[nH]c4ccc(Cl)cc4c3CCN2C(=O)Oc2ccc(F)cc2)ccc1OCCCn1nccn1 (stereo not drawn) [Compound 1148]	8 to 40
COc1ccc(C2c3[nH]c4ccc(Cl)cc4c3CCN2C(=O)OCCn2nccn2)cc1 (stereo not drawn) [Compound 1156]	8 to 40
COc1ccc(C2c3[nH]c4ccc(Cl)cc4c3CCN2C(=O)OCCn2ccnn2)cc1 (stereo not drawn) [Compound 1157]	200 to 1000
COc1ccc(C2c3[nH]c4ccc(Cl)cc4c3CCN2C(=O)OCCn2cncn2)cc1 (stereo not drawn) [Compound 1158]	> 1000
CC1(C)OC[C@H](CCOc2ccc(C3c4[nH]c5ccc(Cl)cc5c4CCN3C(=O)Oc3ccc(Cl)cc3)cc2)O1 (stereo partly drawn) [Compound 1162]	< 8
CCOC(=O)N1CCc2c([nH]c3ccc(Cl)cc23)C1c1ccc(OCC[C@H]2COC(C)(C)O2)cc1 (stereo partly drawn) [Compound 1163]	< 8
CCCOC(=O)N1CCc2c([nH]c3ccc(Cl)cc23)C1c1ccc(OCC[C@H]2COC(C)(C)O2)cc1 (stereo partly drawn) [Compound 1164]	< 8
CC(C)COC(=O)N1CCc2c([nH]c3ccc(Cl)cc23)C1c1ccc(OCC[C@H]2COC(C)(C)O2)cc1 (stereo partly drawn) [Compound 1165]	< 8
CC#CCOC(=O)N1CCc2c([nH]c3ccc(Cl)cc23)C1c1ccc(OCC[C@H]2COC(C)(C)O2)cc1 (stereo partly drawn) [Compound 1166]	< 8
CC(C)(C)COC(=O)N1CCc2c([nH]c3ccc(Cl)cc23)C1c1ccc(OCC[C@H]2COC(C)(C)O2)cc1 (stereo partly drawn) [Compound 1167]	< 8
O=C(Oc1ccc(Cl)cc1)N1CCc2c([nH]c3ccc(Cl)cc23)C1c1ccc(OCC[C@H](O)CO)cc1 (stereo partly drawn) [Compound 1172]	< 8
CCOC(=O)N1CCc2c([nH]c3ccc(Cl)cc23)C1c1ccc(OCC[C@H](O)CO)cc1 (stereo partly drawn) [Compound 1173]	< 8
CCCOC(=O)N1CCc2c([nH]c3ccc(Cl)cc23)C1c1ccc(OCC[C@H](O)CO)cc1 (stereo partly drawn) [Compound 1174]	8 to 40
CC(C)COC(=O)N1CCc2c([nH]c3ccc(Cl)cc23)C1c1ccc(OCC[C@H](O)CO)cc1 (stereo partly drawn) [Compound 1175]	8 to 40
